{
  "source": "patent US20020061599A1",
  "about": "“Method of identifying ligands of biological target molecules” (priority 1999, published 2002)",
  "key": {"[1]": {"biological_target": "T1, NK1 receptor [HisV:05,HisVI:24] (Homo sapiens, UniProt P25103, Y272H)", "T1 construct": "expressed in transfected cells; host or cells: COS-7", "T1 sequence (P25103 whole entry Y272H)": "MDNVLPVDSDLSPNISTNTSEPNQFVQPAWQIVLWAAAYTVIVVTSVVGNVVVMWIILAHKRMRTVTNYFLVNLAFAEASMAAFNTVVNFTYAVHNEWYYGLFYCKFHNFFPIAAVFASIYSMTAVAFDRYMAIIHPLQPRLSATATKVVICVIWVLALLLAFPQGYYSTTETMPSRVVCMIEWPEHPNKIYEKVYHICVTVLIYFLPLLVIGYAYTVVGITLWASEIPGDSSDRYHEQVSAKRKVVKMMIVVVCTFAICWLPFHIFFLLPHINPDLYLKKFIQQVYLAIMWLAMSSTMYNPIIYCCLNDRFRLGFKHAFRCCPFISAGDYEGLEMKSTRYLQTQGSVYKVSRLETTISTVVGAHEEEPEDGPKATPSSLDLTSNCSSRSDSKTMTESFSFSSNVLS", "experiment": "Competition binding with [125I]-Substance P, NK1 receptor [HisV:05,HisVI:24] site", "settings": "all in complex with Zn(II)", "description": "(§1) Binding of [^125I]-Substance P was analysed in COS-7 cells expressing NK1 receptor which have been engineered to bind the zinc metal-ion. Ligand binding is presented in competiton with the zinc metal-ion, the zinc-1,10-phenanthroline complex and with other zinc-chelator complexes as indicated. For structures of the chelators, see Appendix."}, "[2]": {"biological_target": "T2, NK1 receptor [HisIII:08;CysVII:06] (Homo sapiens, UniProt P25103, M291C/P112H)", "T2 construct": "expressed in transfected cells; host or cells: COS-7", "T2 sequence (P25103 whole entry P112H/M291C)": "as the sequence (P25103 whole entry Y272H) above, with P112H, H272Y, M291C counted along it", "experiment": "Competition binding with [125I]-Substance P, NK1 receptor [HisIII:08;CysVII:06] site", "settings": "all in complex with Zn(II)", "description": "as §1"}, "Factor VIIa (FVIIa)": {"biological_target": "T3, Factor VIIa (FVIIa) (Homo sapiens, UniProt P08709)", "T3 construct": "Factor VIIa, i.e. the active form of the FVII protease involved in the coagulation cascade; purchased American Diagnostica", "T3 sequence (P08709 213-466 limits assumed)": "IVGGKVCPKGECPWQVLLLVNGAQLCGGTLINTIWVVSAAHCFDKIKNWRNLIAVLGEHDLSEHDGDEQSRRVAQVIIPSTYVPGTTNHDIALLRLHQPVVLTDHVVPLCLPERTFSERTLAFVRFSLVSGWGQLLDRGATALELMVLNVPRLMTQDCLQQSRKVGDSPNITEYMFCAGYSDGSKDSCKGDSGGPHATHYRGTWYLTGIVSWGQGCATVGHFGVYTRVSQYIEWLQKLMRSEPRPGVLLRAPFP", "T3 sequence (P08709 61-212 partner limits assumed)": "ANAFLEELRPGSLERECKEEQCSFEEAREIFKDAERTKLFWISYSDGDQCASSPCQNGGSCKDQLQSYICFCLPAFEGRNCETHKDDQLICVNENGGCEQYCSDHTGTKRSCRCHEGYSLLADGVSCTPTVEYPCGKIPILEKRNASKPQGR", "experiment": "Amidolytic activity of Factor VIIa", "assay_type": "biochemical", "settings": "for effect on the activity of FVIIa: chelator without metal-ions", "description": "Method—The amidolytic activity of Factor VIIa (FVIIa) was measured by the incubation of 2.5 μl FVIIa (100 nM final concentration, obtained from American Diagnostica), 2.5 μl ligand and 4 μl substrate (10 mM, S2288 obtained from Chromogenix) in 42.5 μl buffer (50 mM Hepes pH 7.4, 1 mM CaCl2, 100 mM NaCl, 0,02% Tween 20). The assay was performed in 96-well plates (Costar). Incubation was performed at room temperature for five hours with absorbance read every 10 minutes."}, "galanin R1 receptor": {"biological_target": "T4, galanin R1 receptor (Homo sapiens, UniProt P47211)", "T4 construct": "expressed in transfected cells; host or cells: COS-7", "T4 sequence (P47211 1-349)": "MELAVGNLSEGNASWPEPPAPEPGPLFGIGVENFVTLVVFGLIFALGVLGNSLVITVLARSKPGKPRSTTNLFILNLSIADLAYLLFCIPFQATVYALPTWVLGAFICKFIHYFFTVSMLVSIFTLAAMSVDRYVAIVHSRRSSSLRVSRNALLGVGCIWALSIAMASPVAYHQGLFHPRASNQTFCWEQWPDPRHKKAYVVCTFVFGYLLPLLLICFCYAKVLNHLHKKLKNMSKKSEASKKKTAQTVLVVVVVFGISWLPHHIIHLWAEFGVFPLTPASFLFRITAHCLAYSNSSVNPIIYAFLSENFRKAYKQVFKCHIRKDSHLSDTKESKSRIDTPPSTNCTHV", "experiment": "Whole cell competition binding with [125I]-galanin in COS-7 cells expressing galanin receptor", "settings": "for binding affinity compared with the basic chelator 1,10-phenanthroline: chelator in complex with Cu(II)", "from_the_text": "Whole cell competition binding experiment with COS-7 cells expressing the wild type and mutant forms of the galanin receptor using [^125I]-galanin as radioligand.\nMethods—The galanin receptor cDNA was introduced into COS-7 cells by the standard calcium phosphate transfection method. The cells were transferred and seeded in multi-well plates for assay one day following the transfection and the number of cells plated per well was adjusted for each individual (wild type and mutant) construct aiming at the binding of 5 to 10% of the radioligand present in the assay. Two days post-transfection the cells were assayed for the presence of [^125]-Galanin binding activity. Radioligand was bound in buffer composed of 25 mM Hepes (pH 7.4), 2.5 mM MgCl2, […] Baciacin and displaced in a dose dependent manner by unlabelled ligand. The assay was performed in triplicate for 3 hours at 4° C., and terminated by the addition of lysis buffer (48% urea, 2% NP-40 in 3M acetic acid). The concentration of radioligand in the assay corresponds to a final concentration of 20 pM."}, "[3]": {"biological_target": "T5, leukotriene LTB4 receptor (Homo sapiens, UniProt Q15722)", "T5 construct": "expressed in transfected cells; host or cells: COS-7", "experiment": "Whole cell competition binding with [3H]-LTB4 in COS-7 cells expressing wild type LTB4 receptor", "from_the_text": "Whole cell competition binding experiment with COS-7 cells expressing the wild type and mutant variants of the leukotriene LTB4 receptor using [^3H]-LTB4 as the radioligand.\nMethods—The leukotriene LTB4 receptor cDNA was cloned by PCR from a leukocyte cDNA library, built into an eukaryotic expression vector and introduced into COS-7 cells by a standard calcium phosphate transfection method. One day after transfection the cells were transferred and seeded in multi-well plates for assay. The number of cells plated per well was chosen so as to obtain 5 to 10% binding of the radioligand added. Two days after transfection the cells were assayed for the presence of [^3H]-LTB4 binding activity. […] The assay was performed in duplicate for 3 hours at 4° C., and stopped by washing twice in buffer. Cell associated, receptor bound radioligand was determined by the addition of lysis buffer (48% urea, 2% NP-40 in 3M acetic acid)."}, "[4]": {"system": "metal-ion site engineered tachykinin NK1 receptors", "experiment": "Competition binding with [125I]-Substance P, library of inter-helical metal-ion sites engineered into NK1 receptor", "settings": "sites between TM-III and -V and between TM-V and -VI", "description": "COS-7 cells expressing various engineered forms of the NK1 receptor were analyzed by competition binding using [^125I]-Substance P as radioligand"}, "[5]": {"biological_target": "T6, [H193K] dopamine transporter (Homo sapiens, UniProt Q01959, H193K)", "T6 construct": "expressed in transfected cells; host or cells: COS-7", "T6 sequence (Q01959 whole entry H193K)": "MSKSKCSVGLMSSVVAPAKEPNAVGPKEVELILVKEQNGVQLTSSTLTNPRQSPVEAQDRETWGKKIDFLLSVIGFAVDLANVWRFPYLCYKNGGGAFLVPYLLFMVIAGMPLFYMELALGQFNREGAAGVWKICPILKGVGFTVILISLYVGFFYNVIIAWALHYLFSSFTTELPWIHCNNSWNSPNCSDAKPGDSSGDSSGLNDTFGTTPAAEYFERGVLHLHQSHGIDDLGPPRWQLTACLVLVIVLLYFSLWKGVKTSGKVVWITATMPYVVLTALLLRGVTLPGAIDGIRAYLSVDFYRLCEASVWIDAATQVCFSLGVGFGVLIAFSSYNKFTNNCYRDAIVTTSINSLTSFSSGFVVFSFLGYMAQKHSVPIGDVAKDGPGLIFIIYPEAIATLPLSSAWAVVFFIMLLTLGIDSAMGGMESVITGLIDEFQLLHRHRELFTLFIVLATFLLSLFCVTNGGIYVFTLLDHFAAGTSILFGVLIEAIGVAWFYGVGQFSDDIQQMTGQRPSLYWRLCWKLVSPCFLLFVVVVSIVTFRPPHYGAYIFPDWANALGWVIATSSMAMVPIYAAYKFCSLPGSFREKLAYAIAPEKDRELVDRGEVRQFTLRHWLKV", "experiment": "[3H]-dopamine uptake in COS-7 cells, [H193K] mutant dopamine transporter", "assay_type": "cell-based", "settings": "mutational substitution of His193; chelator in complex with Zn(II)", "description": "Panel B. Dopamine uptake analysis in a mutant form of the dopamine transporter, [H193K], in which binding of the metal-ion complex has been eliminated (Noregaard et al. EMBO J. (1998) 17: 4266-4273).\n(§2) Methods—The dopamine transporter cDNA was introduced into COS-7 by the standard calcium phosphate transfection method. Two days post-transfection the cells were assayed for [^3H]-Dopamine uptake activity. The uptake assays was performed in 25 mM Hepes pH 7.4, 120 mM NaCl, 5 mM KCl, 1.2 mM CaCl2, 1.2 mM MgSO4, 1 mM ascorbic acid and 5 mM D-glucose and in the presence of various concentrations of unlabelled dopamine as indicated in the figures. The assay was performed in triplicate at 37° C. for 10 minutes, and terminated by washing with buffer twice and the addition of lysis buffer (48% urea, 2% NP-40 in 3M acetic acid)."}, "dopamine transporter": {"biological_target": "T7, dopamine transporter (Homo sapiens, UniProt Q01959)", "T7 construct": "expressed in transfected cells; host or cells: COS-7", "T7 sequence (Q01959 whole entry)": "as the sequence (Q01959 whole entry H193K) above, with K193H counted along it", "experiment": "[3H]-dopamine uptake in COS-7 cells expressing wild-type dopamine transporter", "assay_type": "cell-based", "settings": "for effect on dopamine transport: chelator by itself, without metal-ion", "description": "Competition analysis of uptake of [^3H]-dopamine in whole COS-7 cells expressing the dopamine transporter.\nas §2"}},
  "note": "Entries after “also recorded” stand apart in the source; their conditions may differ.",
  "data": [
    {"smiles": "O=C1C(=O)c2cccnc2-c2ncccc21", "note": "[compound 175, 1,10-phenanthroline-5,6-dione]", "values": [
      {"measurement": "binding, fold better than 1,10-phenanthroline", "setting": "[1]", "result": 10, "unit": "fold"},
      {"measurement": "binding compared with 1,10′-phenanthroline", "setting": "[2]", "result": "almost similar"}
    ]},
    {"smiles": "c1cnc2c(c1)ccc1cccnc12", "note": "[1,10-phenanthroline, reference compound]", "values": [
      {"measurement": "effect on the activity of FVIIa", "setting": "Factor VIIa (FVIIa)", "result": "no effect"},
      {"measurement": "effect on [125I]-galanin binding", "setting": "galanin R1 receptor; chelator alone, without metal-ion", "result": "no effect"}
    ]},
    {"smiles": "[Cl][Cu][Cl]", "note": "[Cu(II), reference compound]", "values": [
      {"measurement": "Hill coefficient", "setting": "galanin R1 receptor; displacement of [125I]-galanin", "result": "−4"},
      {"measurement": "IC50", "setting": "[3]; wild type receptor, whole COS-7 cells, read-out: IC50, displacement of [3H]-LTB4", "result": 70, "unit": "µM"},
      {"measurement": "increase in affinity versus wild-type", "setting": "[4]", "result": "no increase or just a marginal increase in affinity"}
    ]},
    {"smiles": "Cc1cc2cccnc2c2ncccc12", "note": "[compound 176, 5-methyl-1,10-phenanthroline]", "values": [
      {"measurement": "binding affinity compared with the basic chelator 1,10-phenanthroline", "setting": "galanin R1 receptor", "result": "increase the binding affinity"}
    ]},
    {"smiles": "CC(=O)O/N=C(\\N)c1ccccn1", "note": "[compound 210, 2-pyridylamidoxime, O-acetyl]", "values": [
      {"measurement": "effect of the metal-ion chelator complex on dopamine transport", "setting": "[5]", "result": "eliminated"},
      {"measurement": "effect on dopamine transport", "setting": "dopamine transporter", "result": "does not affect"},
      {"measurement": "potency of blocking dopamine transport, fold higher than free Zn(II)", "setting": "dopamine transporter; chelator in complex with Zn(II), mono-component", "result": "approx 10 fold"}
    ]},
    {"smiles": "ClC(Cl)(Cl)c1ccc2ccc3ccc(C(Cl)(Cl)Cl)nc3c2n1", "note": "[compound 135, 2,9-bis(trichloromethyl)-1,10-phenanthroline]", "values": [
      {"measurement": "potency of inhibiting FVIIa compared with the basic chelator complex", "setting": "Factor VIIa (FVIIa); chelator in complex with Zn(II)", "result": "increased potency"},
      {"measurement": "binding, fold better than 1,10-phenanthroline", "setting": "[1]", "result": 6, "unit": "fold"},
      {"measurement": "binding compared with 1,10′-phenanthroline", "setting": "[2]", "result": "almost similar"}
    ]},
    {"smiles": "c1ccc(-c2cc3cccnc3c3ncccc23)cc1", "note": "[compound 134, 5-phenyl-1,10-phenanthroline]", "values": [
      {"measurement": "binding affinity compared with the basic chelator 1,10-phenanthroline", "setting": "galanin R1 receptor", "result": "bound like 1,10′-phenanthroline"},
      {"measurement": "binding of the metal-ion chelator complex compared with 1,10-phenanthroline", "setting": "[3]; chelator in complex with Cu(II)", "result": "entirely eliminated the binding; also recorded: totally inactive"},
      {"measurement": "potency compared with phenanthroline", "setting": "[1]", "result": "only slightly more potent"},
      {"measurement": "potency, fold more potent than phenanthroline", "setting": "[2]", "result": 7, "unit": "fold"}
    ]},
    {"smiles": "OCc1ccc2ccc3ccc(CO)nc3c2n1", "note": "[compound 133, 2,9-dimethanol-1,10-phenanthroline]", "values": [
      {"measurement": "binding affinity compared with the basic chelator 1,10-phenanthroline", "setting": "galanin R1 receptor", "result": "decrease the affinity"}
    ]},
    {"smiles": "c1ccc(-c2ccccn2)nc1", "note": "[2,2′-bipyridine, reference compound]", "values": [
      {"measurement": "effect on the activity of FVIIa", "setting": "Factor VIIa (FVIIa)", "result": "no effect"},
      {"measurement": "effect on dopamine transport", "setting": "dopamine transporter", "result": "no effect"}
    ]}
  ]
}
